≈ marks a conversion by molar mass, not a printed value. Read-outs that look alike come from different tables or passages of the source.
Experiments:
S. aureus DNA gyrase = target: T1, S. aureus DNA gyrase (Staphylococcus aureus, UniProt P20831); assay: biochemical; format: biochemical; conditions: for LE DNA Gyrase S. aureus: LE = (1.37/HA) × pIC50; for IC50: fluorescence plate supercoiling assay, mean of two to four measurements
T1 construct: purchased Inspiralis (Norwich, UK)
Method: A Gyrase Supercoiling High Throughput Plate assay kit, purchased from Inspiralis (Norwich. UK) was used to determine IC50 values of compounds on S. aureus and E. coli. […] Biotinylated oligonucleotide in wash buffer was immobilized onto the wells, and the excess oligonucleotide was washed off with wash buffer and ultrapure water. […] The reactions were stopped by adding the TF buffer (50 mM NaOAc (pH 4.7), 50 mM NaCl, and 50 mM MgCl2) to allow the triplex formation (biotin-oligonucleotide-plasmid) for additional 30 min. Afterward, the unbound plasmid was washed off using TF buffer, and the solution of Promega Diamond dye in T10 buffer (10 mM Tris-HCl (pH 8.0), 1 mM EDTA) was added. […] IC50 value represents the mean of two to four independent measurements.

E. coli (ATCC 25922) = assay: MIC broth microdilution, E. coli ATCC 25922; format: cell-based
Method: (§1) Antimicrobial testing was carried out by the broth microdilution method in 96-well plate format following the Clinical and Laboratory Standards Institute (CLSI) guidelines and European Committee on Antimicrobial Susceptibility Testing (EUCAST) recommendations. Bacterial suspension of specific bacterial strain equivalent to 0.5 McFarland turbidity standard was diluted with cation-adjusted Mueller Hinton broth with TES (Thermo Fisher Diagnostic, Landsmeer, The Netherlands), to obtain a final inoculum of 10^5 CFU/mL. Compounds dissolved in DMSO and inoculum were mixed together and incubated for 18–20 h at 35 °C. Suspensions of Mycobacterium sp. were prepared into a tube of Middelbrook 7H9 broth supplemented with 5% OADC (Thermo Scientific, Trek Diagnostic Systems, West Sussex, UK) and incubated for at least 10 days. After incubation the minimal inhibitory concentration (MIC) values were determined by visual inspection as the lowest dilution of compounds showing no turbidity. Tetracycline was used as a positive control on every assay plate.

[1] = test system: P. aeruginosa RDK 184 (DSM 939); assay: MIC broth microdilution, P. aeruginosa; format: cell-based
Method: as §1

[2] = target: T2, hERG potassium ion channel (Homo sapiens, UniProt Q12809); assay: FP-based hERG binding assay (Invitrogen kit)
T2 construct: purchased Invitrogen (assay run at TCG Lifesciences Pvt. Ltd.)
T2 sequence (Q12809 whole entry): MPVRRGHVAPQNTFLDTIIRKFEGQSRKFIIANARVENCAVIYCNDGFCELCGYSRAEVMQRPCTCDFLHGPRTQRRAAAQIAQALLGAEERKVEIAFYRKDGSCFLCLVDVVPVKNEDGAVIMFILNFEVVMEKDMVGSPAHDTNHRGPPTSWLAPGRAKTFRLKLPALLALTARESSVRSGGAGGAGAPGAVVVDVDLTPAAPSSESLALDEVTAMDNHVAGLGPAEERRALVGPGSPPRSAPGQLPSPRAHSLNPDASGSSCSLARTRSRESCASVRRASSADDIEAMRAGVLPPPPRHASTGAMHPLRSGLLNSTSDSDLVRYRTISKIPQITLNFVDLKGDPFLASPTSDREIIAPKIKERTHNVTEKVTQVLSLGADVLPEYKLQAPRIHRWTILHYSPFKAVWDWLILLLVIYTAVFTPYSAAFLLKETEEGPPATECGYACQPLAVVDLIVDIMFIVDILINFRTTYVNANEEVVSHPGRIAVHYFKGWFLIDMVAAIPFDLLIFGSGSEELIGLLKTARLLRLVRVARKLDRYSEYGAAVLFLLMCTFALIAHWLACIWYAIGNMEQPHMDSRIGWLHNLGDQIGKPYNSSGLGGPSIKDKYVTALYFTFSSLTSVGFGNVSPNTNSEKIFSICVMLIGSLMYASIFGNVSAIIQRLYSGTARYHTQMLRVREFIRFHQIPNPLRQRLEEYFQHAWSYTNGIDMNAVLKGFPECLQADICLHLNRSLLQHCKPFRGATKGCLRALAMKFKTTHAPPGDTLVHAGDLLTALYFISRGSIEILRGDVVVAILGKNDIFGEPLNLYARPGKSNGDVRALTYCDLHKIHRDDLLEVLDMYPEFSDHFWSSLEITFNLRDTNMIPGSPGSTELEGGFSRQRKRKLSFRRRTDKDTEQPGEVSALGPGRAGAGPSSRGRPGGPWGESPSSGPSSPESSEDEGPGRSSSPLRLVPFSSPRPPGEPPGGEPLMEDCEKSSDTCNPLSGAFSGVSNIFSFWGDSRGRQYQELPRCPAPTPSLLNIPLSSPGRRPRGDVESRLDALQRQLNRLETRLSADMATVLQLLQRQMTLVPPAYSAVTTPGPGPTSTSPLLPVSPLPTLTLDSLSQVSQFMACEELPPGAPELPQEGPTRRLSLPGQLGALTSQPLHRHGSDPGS
Method: Cardiovascular safety profile was entirely outsourced. hERG screening was performed at TCG Lifesciences Pvt. Ltd., Kolkata, West Bengal, India with FP-based hERG binding assay (Invitrogen kit).

HepG2 = assay: Metabolic activity assessment (cytotoxicity), HepG2; format: cell-based; conditions: Homo sapiens
Method: Cells of the HepG2 line (ATCC® HB-8065™) and HUVEC (ATCC® CRL-1730™) were cultured in Dulbecco’s Modified Eagle Medium (DMEM; Sigma-Aldrich, St. Louis, MO, USA) supplemented with 10% heat-deactivated FBS (Gibco, Grand Island, NE, USA), 2 mM L-glutamine, 100 U/mL penicillin, 100 μg/mL streptomycin (all from Sigma-Aldrich, St. Louis, MO, USA) in a humidified chamber at 37 °C and 5% CO2. The experiments were carried out on passages 7–9 for both cell lines. The tested compounds were dissolved in DMSO and further diluted in culture medium to a desired final concentration. Cells were seeded into 96-well plates at 8 × 10^4 cells/mL (100 μL/well) and incubated for 24 h to attach onto the wells. Cells were treated with 1 μM and 50 μM of each compound of interest or corresponding vehicle as control. […] The metabolic activity was assessed after 72 h treatment using the CellTiter 96 Aqueous One Solution Cell Proliferation Assay (Promega, Madison, WI, USA), in accordance with the manufacturer’s instructions. The absorbance was measured at 492 nm on an automated microplate reader BioTek Synergy HT (BioTek Instruments, Inc., Winooski, VT, USA). Data are presented as the percentage of metabolic activity of control cells stimulated with vehicle or as IC50 value (mean ± SD) from two independent experiments, each conducted in duplicate or triplicate. IC50 values were calculated by a non-linear regression model using Graph Pad Prism 7 software.

[3] = Escherichia coli, ATCC25922, 20 h; E. coli ATCC 25922; read-out: E. coli MIC (converted)
[4] = Escherichia coli, ATCC25922; read-out: MIC E. coli (ATCC 25922)
[5] = Pseudomonas aeruginosa, DSM939; read-out: MIC P. aeruginosa RDK 184 (DSM 939)
[6] = Escherichia coli, ATCC25922; E. coli ATCC 25922; read-out: E. coli MIC (converted)
[7] = HepG2, metabolic activity after 72 h treatment
[8] = Escherichia coli, ATCC25922, read-out: MIC E. coli (ATCC 25922)
[9] = Pseudomonas aeruginosa, DSM939, read-out: MIC P. aeruginosa RDK 184 (DSM 939)
[10] = HepG2, 72 h, metabolic activity after 72 h treatment

T1 sequence (P20831 whole entry): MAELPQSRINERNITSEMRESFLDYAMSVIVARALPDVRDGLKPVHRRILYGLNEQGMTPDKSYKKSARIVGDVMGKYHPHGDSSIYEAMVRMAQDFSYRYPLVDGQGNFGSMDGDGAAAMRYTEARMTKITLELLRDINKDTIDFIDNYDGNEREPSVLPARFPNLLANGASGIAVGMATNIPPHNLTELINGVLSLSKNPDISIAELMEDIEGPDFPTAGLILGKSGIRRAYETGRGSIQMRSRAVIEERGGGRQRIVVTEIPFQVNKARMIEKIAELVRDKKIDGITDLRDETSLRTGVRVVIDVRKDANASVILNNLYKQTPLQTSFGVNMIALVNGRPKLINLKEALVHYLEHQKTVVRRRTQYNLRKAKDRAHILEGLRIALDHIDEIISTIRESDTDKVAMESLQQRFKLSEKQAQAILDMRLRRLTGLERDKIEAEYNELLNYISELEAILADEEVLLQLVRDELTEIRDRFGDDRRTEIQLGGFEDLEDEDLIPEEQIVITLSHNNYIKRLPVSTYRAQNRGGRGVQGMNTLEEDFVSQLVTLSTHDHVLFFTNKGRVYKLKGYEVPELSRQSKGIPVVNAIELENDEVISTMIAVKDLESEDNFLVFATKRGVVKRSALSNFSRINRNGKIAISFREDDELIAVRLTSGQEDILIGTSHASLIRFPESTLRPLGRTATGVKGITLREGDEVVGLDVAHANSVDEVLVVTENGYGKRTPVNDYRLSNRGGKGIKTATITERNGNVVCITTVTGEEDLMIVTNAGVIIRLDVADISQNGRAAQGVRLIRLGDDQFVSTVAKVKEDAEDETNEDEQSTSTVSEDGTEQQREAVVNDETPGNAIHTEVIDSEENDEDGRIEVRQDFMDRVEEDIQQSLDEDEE
T1 sequence (P0A0K8 whole entry partner): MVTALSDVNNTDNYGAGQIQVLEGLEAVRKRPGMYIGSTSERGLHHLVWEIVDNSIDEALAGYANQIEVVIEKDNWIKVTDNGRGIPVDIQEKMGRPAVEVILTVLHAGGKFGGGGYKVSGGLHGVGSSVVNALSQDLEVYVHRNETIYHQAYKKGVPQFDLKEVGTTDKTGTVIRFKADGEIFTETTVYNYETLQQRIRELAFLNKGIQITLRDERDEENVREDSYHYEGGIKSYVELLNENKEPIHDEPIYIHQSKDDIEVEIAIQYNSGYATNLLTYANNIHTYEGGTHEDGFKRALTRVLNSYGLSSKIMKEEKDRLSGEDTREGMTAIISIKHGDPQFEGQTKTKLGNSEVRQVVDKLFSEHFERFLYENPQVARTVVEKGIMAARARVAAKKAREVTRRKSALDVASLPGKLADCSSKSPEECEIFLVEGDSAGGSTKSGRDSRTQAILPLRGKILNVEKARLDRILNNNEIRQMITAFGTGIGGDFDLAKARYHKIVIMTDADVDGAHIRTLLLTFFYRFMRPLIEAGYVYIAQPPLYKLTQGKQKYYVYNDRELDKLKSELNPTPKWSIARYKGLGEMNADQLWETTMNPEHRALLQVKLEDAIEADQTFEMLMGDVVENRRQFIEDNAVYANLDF

SMILES | LE DNA Gyrase S. aureus (S. aureus DNA gyrase) | IC50 (S. aureus DNA gyrase) [µM] | MIC (E. coli (ATCC 25922); [3]) [µM] | MIC (E. coli (ATCC 25922); [4]) [µg/mL] | MIC [1, 5] [µg/mL] | IC50 [2] [µM] | MIC (E. coli (ATCC 25922); [6]) [µM] | IC50 (HepG2; [7]) [µM] | improvement in S. aureus gyrase IC50 compared to its predecessor (S. aureus DNA gyrase; vs methoxy-quinoline cyclohexyl-amide predecessor) [fold] | MIC (E. coli (ATCC 25922); Escherichia coli, ATCC25922, 20 h, read-out: E. coli MIC in molar) [µM] | MIC (E. coli (ATCC 25922); [8]) [µg/mL] | MIC [1, 9] [µg/mL] | IC50 (HepG2; [10]) [µM]
COc1ccc2nccc(CCN3CCC(NCc4nc5ccccc5n4C)CC3)c2n1 [Compound 3, 1-(2-(6-Methoxy-1,5-naphthyridin-4-yl)ethyl)-N-((1-methyl-1H-benzo[d]imidazol-2-yl)methyl)piperidin-4-amine] | 0.25 | 1.6 ± 0.35 | 297 | > 128 | > 128 | 1.04 | – | – | – | – | – | – | –
COc1ccc2nccc(CCN3CCC(NCc4cnn(-c5ccc(F)cc5)c4)CC3)c2n1 [Compound 4, N-((1-(4-Fluorophenyl)-1H-pyrazol-4-yl)methyl)-1-(2-(6-methoxy-1,5-naphthyridin-4-yl)ethyl)piperidin-4-amine] | 0.25 | 0.51 ± 0.25 | – | 32 | > 128 | 0.33 | 69.5 | 4.64 ± 0.1 | – | – | – | – | –
COc1ccc2nccc(CCN3CCC(NCc4cnn(-c5ccccc5)c4)CC3)c2n1 [Compound 5, 1-(2-(6-Methoxy-1,5-naphthyridin-4-yl)ethyl)-N-((1-phenyl-1H-pyrazol-4-yl)methyl)piperidin-4-amine] | 0.27 | 0.33 ± 0.08 | – | 16 | > 128 | 0.62 | 36.1 | 6.33 ± 0.19 | 2.5 | – | – | – | –
COc1ccc2nccc(CCN3CCC(NCc4c(C)nc5c(C)cccn45)CC3)c2n1 [Compound 6, N-((2,8-Dimethylimidazo[1,2-a]pyridin-3-yl)methyl)-1-(2-(6-methoxy-1,5-naphthyridin-4-yl)ethyl)piperidin-4-amine] | – | > 100 | – | – | – | – | – | – | – | 288 | > 128 | > 128 | –
COc1ccc2nccc(CCN3CCC(NC(=O)c4cn5cccc(C#N)c5n4)CC3)c2n1 [Compound 7, 8-Cyano-N-(1-(2-(6-methoxy-1,5-naphthyridin-4-yl)ethyl)piperidin-4-yl)imidazo[1,2-a]pyridine-2-carboxamide] | – | > 100 | 281 | – | – | – | – | – | – | – | > 128 | > 128 | –
COc1ccc2nccc(CCN3CCC(NCc4cnn(-c5ccccc5)n4)CC3)c2n1 [Compound 8, 1-(2-(6-Methoxy-1,5-naphthyridin-4-yl)ethyl)-N-((2-phenyl-2H-1,2,3-triazol-4-yl)methyl)piperidin-4-amine] | 0.27 | 0.24 ± 0.04 | – | 64 | > 128 | 0.37 | 144 | 17.1 ± 0.98 | – | – | – | – | –
COc1ccc2nccc(CCN3CCC(NCc4cnn(C(C)C)c4)CC3)c2n1 [Compound 9, N-((1-Isopropyl-1H-pyrazol-4-yl)methyl)-1-(2-(6-methoxy-1,5-naphthyridin-4-yl)ethyl)piperidin-4-amine] | 0.31 | 0.16 ± 0.01 | – | 8 | > 128 | 9.82 | 19.6 | > 50 | – | – | – | – | –
C=CCn1cc(CNC2CCN(CCc3ccnc4ccc(OC)nc34)CC2)cn1 [Compound 10, N-((1-Allyl-1H-pyrazol-4-yl)methyl)-1-(2-(6-methoxy-1,5-naphthyridin-4-yl)ethyl)piperidin-4-amine] | 0.27 | 1.1 ± 0.17 | – | 16 | > 128 | 6.62 | 39.4 | > 50 | – | – | – | – | –
COc1ccc2nccc(CCN3CCC(NCc4ccccc4)CC3)c2n1 [Compound 11] | 0.29 | – | – | 64 | > 128 | – | 170 | – | – | – | – | – | –
COc1ccc2nccc(CCN3CCC(NCc4ccc(F)cc4)CC3)c2n1 [Compound 12] | 0.30 | – | – | 32 | > 128 | – | 81.1 | – | – | – | – | – | –
COc1ccc2nccc(CCN3CCC(NCc4ccc(Cl)cc4)CC3)c2n1 [Compound 13] | – | – | – | 4 | > 128 | – | 9.73 | – | – | – | – | – | –
COc1ccc2nccc(CCN3CCC(NCc4ccc(Br)cc4)CC3)c2n1 [Compound 14] | – | – | – | 2 | 128 (≈ 281 µM) | – | 4.39 | – | – | – | – | – | –
COc1ccc2nccc(CCN3CCC(NCc4ccc(CO)cc4)CC3)c2n1 [Compound 16] | 0.24 | 4.39 ± 0.55 | – | 128 | > 128 | 3.24 | 315 | – | – | – | – | – | –
COc1ccc2nccc(CCN3CCC(NCc4ccc(C(N)=O)cc4)CC3)c2n1 [Compound 17] | 0.25 | 1.82 ± 0.11 | 305 | > 128 | > 128 | – | – | – | – | – | – | – | –
COc1ccc2nccc(CCN3CCC(NCc4ccc(N(C)C)cc4)CC3)c2n1 [Compound 18] | 0.32 | – | – | 32 | > 128 | – | 78.5 | – | – | – | – | – | –
COc1ccc2nccc(CCN3CCC(NCc4ccc(OC(F)F)c(OC)c4)CC3)c2n1 [Compound 19, N-(4-(Difluoromethoxy)-3-methoxybenzyl)-1-(2-(6-methoxy-1,5-naphthyridin-4-yl)ethyl)piperidin-4-amine] | 0.26 | 0.35 ± 0.03 | – | 32 | > 128 | 0.46 | 67.7 | – | – | – | – | – | 6.31 ± 0.09
COc1ccc2nccc(CCN3CCC(NCc4ccc(OC(F)F)c(O)c4)CC3)c2n1 [Compound 20, 2-(Difluoromethoxy)-5-((1-(2-(6-methoxy-1,5-naphthyridin-4-yl)ethyl)piperidin-4-ylamino)methyl)phenol] | 0.27 | 0.33 ± 0.02 | – | 8 | > 128 | 0.18 | 17.4 | – | – | – | – | – | 10.9 ± 0.12

Reference: article PMC8300687, “A Fine-Tuned Lipophilicity/Hydrophilicity Ratio Governs Antibacterial Potency and Selectivity of Bifurcated Halogen Bond-Forming NBTIs” (Antibiotics, 2021)
